In assay [1] the target is T1, MC4-R (Homo sapiens, UniProt P32245). The assay can be described thus: Competitive inhibition binding assay, 125I-NDP-α-MSH, MC4-R. More on the design: expressed in transfected cells. As to conditions: for Inhibition at 1 μM MC4-R: 1 μM compound, inhibition of 125I-NDP-α-MSH binding, mean of triplicates, results less than 0% reported as 0%. The method in brief:
(§1)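 Membranes from hMC3-R, hMC4-R or hMC5-R cells, or B-16 mouse melanoma cells (MC1-R), were incubated 90 min at room temperature with 0.4 nM 125I-NDP-α-MSH in HEPES pH 7.2 with Mg2+/Ca2+/K+, and test compound generally at 1 μM. Filter-bound radioactivity was gamma counted. Specific binding was defined with 1 μM α-MSH; triplicate means.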

Assay [2] deals with T2, MC1-R (B-16 mouse melanoma cells) (Mus musculus, UniProt Q01727).
T2 construct: B-16 mouse melanoma cells (containing MC1-R); endogenous in cells; host or cells: B-16 mouse melanoma cells
In words: Ki determination by the method of Example 4, MC1-R. The assay is classed as binding. On the procedure: (§2) The Ki (nM) of certain peptidomimetics were determined, as was the agonist/antagonist status with respect to MC4-R, Functional evaluation of compounds at melanocortin receptors was performed by measuring the accumulation of intracellular cAMP in HEK-293 cells expressing MC3-R, MC4-R or MC5-R, and in B-16 mouse melanoma cells (containing MC1-R). Antagonistic activity was determined by measuring the inhibition of α-MSH-induced cAMP levels following exposure to the compounds. Cells, suspended in Earle's Balanced Salt Solution containing 10 mM HEPES, pH 7.5, 5 mM MgCl2, 1 mM glutamine, 0.1% albumin and 0.6 mM 3-isobutyl-1-methyl-xanthine, a phosphodiesterase inhibitor, were plated in 96 well plates at a density of 0.5×10^5 cells per well. Cells were incubated with the test compounds in the presence or absence of α-MSH for 1 hour at 37° C. cAMP levels were measured by EIA (Amersham) in the cell lysates. Data analysis and EC50 values were determined using nonlinear regression analysis with Prism Graph-Pad software.

The target of assay [3] is T3, MC3-R (Homo sapiens, UniProt P41968). In words: Competitive inhibition binding assay, 125I-NDP-α-MSH, MC3-R. Set-up: expressed in transfected cells. As to conditions: for Inhibition at 1 μM MC3-R: 1 μM compound, inhibition of 125I-NDP-α-MSH binding, mean of triplicates, results less than 0% reported as 0%. Put shortly:
as §1

Assay [4] has as its target T2, MC1-R (B-16 mouse melanoma cells). In words: Competitive inhibition binding assay, 125I-NDP-α-MSH, MC1-R. As to conditions: for Inhibition at 1 μM MC1-R: 1 μM compound, inhibition of 125I-NDP-α-MSH binding, mean of triplicates, results less than 0% reported as 0%. Put shortly:
as §1

Assay [5] addresses T4, MC5-R (Homo sapiens, UniProt P33032). The assay can be described thus: Ki determination by the method of Example 4, MC5-R. In kind it is binding. Set-up: expressed in transfected cells; host or cells: HEK-293. The procedure:
as §2

Assay [6] deals with T1, MC4-R. In words: Ki determination by the method of Example 4, MC4-R. Set-up: expressed in transfected cells; host or cells: HEK-293. In kind it is binding. On the procedure:
as §2

For assay [7], the target named is T4, MC5-R. The assay can be described thus: Competitive inhibition binding assay, 125I-NDP-α-MSH, MC5-R. Set-up: expressed in transfected cells. As to conditions: for Inhibition at 1 μM MC5-R: 1 μM compound, inhibition of 125I-NDP-α-MSH binding, mean of triplicates, results less than 0% reported as 0%. Put shortly: as §1
Assay [8] concerns the target T3, MC3-R. In words: Ki determination by the method of Example 4, MC3-R. The assay is classed as binding. Set-up: expressed in transfected cells; host or cells: HEK-293. On the procedure:
as §2

Assay [9] addresses T2, MC1-R (B-16 mouse melanoma cells). In words: cAMP assay for agonist/antagonist status, MC1-R. In kind it is cell-based. The procedure:
as §2
A general note: cAMP levels reflect the balance of adenylyl cyclase and phosphodiesterase activity.

In assay [10] the target is T5, MC4-R (HEK-293 cells) (Homo sapiens, UniProt P32245).
T5 construct: expressed in transfected cells; host or cells: HEK-293
The assay can be described thus: cAMP assay for agonist/antagonist status, MC4-R. The assay is classed as cell-based. The procedure: as §2

For assay [11], the target named is T6, MC5-R (HEK-293 cells) (Homo sapiens, UniProt P33032).
T6 construct: expressed in transfected cells; host or cells: HEK-293
In words: cAMP assay for agonist/antagonist status, MC5-R. In kind it is cell-based. On the procedure:
as §2

The mark [12] stands for this setting: bound in μM, read-out: Ki MC1-R.
Where [13] appears, read: bound in μM, read-out: Ki MC3-R.
[14] abbreviates: bound in μM, read-out: Ki MC5-R.
Where [15] appears, read: bound in μM, read-out: Ki MC4-R.

Like-named read-outs stand apart in the source and are kept apart here. Non-standard residues stand in square brackets, D forms with d. Residues, ends and D or L forms follow the SMILES beside them. *: point of attachment. Hyp = O=C(O)[CH]1C[CH](O)CN1; Nle = CCCC[CH](N)C(=O)O; NH(CH2)3NH2 = NCCCN*; Bn = c1ccc(C*)cc1

T3 sequence (P41968 whole entry): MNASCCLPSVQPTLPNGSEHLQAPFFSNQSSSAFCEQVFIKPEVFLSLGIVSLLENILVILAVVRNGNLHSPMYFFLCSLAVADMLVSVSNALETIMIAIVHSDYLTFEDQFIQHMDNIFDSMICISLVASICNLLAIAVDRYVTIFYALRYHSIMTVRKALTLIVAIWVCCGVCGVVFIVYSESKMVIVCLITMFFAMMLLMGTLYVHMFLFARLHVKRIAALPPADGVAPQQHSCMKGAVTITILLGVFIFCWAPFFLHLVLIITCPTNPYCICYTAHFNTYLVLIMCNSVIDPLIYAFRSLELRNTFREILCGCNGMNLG
T4 sequence (P33032 whole entry): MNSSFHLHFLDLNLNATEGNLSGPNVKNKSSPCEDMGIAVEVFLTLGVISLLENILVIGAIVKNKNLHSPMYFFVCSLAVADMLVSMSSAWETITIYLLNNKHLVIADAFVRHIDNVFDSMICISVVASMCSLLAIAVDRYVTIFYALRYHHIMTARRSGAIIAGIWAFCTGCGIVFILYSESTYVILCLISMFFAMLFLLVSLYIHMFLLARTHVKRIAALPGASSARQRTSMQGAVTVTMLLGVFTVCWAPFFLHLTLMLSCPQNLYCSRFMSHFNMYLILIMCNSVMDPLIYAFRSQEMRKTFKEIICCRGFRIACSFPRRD
T2 sequence (Q01727 whole entry): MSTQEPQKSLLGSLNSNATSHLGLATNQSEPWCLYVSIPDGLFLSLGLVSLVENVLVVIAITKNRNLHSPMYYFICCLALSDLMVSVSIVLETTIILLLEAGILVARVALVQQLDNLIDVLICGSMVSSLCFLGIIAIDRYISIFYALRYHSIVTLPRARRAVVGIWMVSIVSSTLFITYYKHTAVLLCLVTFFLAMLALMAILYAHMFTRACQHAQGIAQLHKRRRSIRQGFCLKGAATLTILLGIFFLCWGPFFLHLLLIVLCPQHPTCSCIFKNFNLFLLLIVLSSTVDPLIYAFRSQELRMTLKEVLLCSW
T1 sequence (P32245 whole entry): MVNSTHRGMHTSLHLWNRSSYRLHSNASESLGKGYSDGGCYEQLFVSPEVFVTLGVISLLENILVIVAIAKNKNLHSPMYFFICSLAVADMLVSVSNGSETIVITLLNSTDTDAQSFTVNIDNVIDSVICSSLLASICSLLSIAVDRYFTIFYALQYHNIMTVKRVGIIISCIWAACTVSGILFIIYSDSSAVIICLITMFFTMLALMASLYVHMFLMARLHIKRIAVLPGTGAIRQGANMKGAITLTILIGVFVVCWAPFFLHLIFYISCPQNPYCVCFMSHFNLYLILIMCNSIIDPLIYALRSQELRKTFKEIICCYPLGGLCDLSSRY
T5 sequence (P32245 whole entry): as above
T6 sequence (P33032 whole entry): as the sequence (P33032 whole entry) above

The term inhibition denotes the drop in the measured response relative to a control, in per cent. For orientation: Ki means a dissociation constant, usually derived from enzyme kinetics or from competition with a known ligand. On to `N=C(N)NCCCC1C(=O)N(CCc2c[nH]c3ccccc23)CCN1C(=O)C(Cc1ccc(Cl)cc1)NC(=O)C1Cc2ccccc2CN1` (centres unmarked) [Example 14], for which the inhibition at 1 µM in [1] came to 99%; in assay [3], 88%; in assay [4] it was 96%; in assay [7] it was 89%. For the same compound, the Ki in assay [2] (read-out: Ki (nM) MC1-R) turned out to be 3 nM; in assay [5] (read-out: Ki (nM) MC5-R), 52 nM; in assay [6] (read-out: Ki (nM) MC4-R), 2 nM; in assay [8] (read-out: Ki (nM) MC3-R), 77 nM.
`N=C(N)NCCCC1C(=O)N(CCc2c[nH]c3ccccc23)CCN1C(=O)C(Cc1ccc(Cl)cc1)NC(=O)C(COCc1ccccc1)NC(=O)CCCCCCN` (centres unmarked) [Example 17]: the inhibition at 1 µM in assay [1] is 99%; in assay [3] it was 97%; in assay [4], 96%; in assay [7] it was 94%. Also, the inhibition constant (Ki) was determined as 4 nM in assay [2] (read-out: Ki (nM) MC1-R), 32 nM in [5] (read-out: Ki (nM) MC5-R), 2 nM in assay [6] (read-out: Ki (nM) MC4-R) and 17 nM in [8] (read-out: Ki (nM) MC3-R).
In the case of `NCCCC[C@H]1C(=O)N(CCc2ccc3ccccc3c2)CCN1C(=O)[C@@H](Cc1ccc(Cl)cc1Cl)NC(=O)[C@@H]1CC[C@H](c2ccccc2)N1` [Example 26], the inhibition constant Ki is above 1000 nM in assay [2] (setting [12]), 789 nM in assay [5] (read-out: Ki (nM) MC5-R), 50 nM in [6] (read-out: Ki (nM) MC4-R) and above 1000 nM in [8] (setting [13]).
`NC(COCc1ccccc1)C(=O)NC(Cc1ccc(Cl)cc1Cl)C(=O)N1CCN(CCc2ccc3ccccc3c2)C(=O)C1CCCNC1=NCCN1` (centres unmarked) [Example 48]: the inhibition at 1 µM in assay [1] was 99%; in assay [3] it was 60%; in assay [4], 63%; in assay [7] it was 75%. In addition, the Ki in [2] (setting [12]) is above 1000 nM; in assay [5] (read-out: Ki (nM) MC5-R), 104 nM; in [6] (read-out: Ki (nM) MC4-R) it was 4 nM; in [8] (setting [13]) it was above 1000 nM.
As for `CCCCCCC(=O)NC(COCc1ccccc1)C(=O)NC(Cc1ccc(Cl)cc1)C(=O)N1C(CCCCN)C(=O)N2C(COc3ccc4ccccc4c3)CCC21` (centres unmarked) [Example 81], the Ki is 134 nM in assay [5] (read-out: Ki (nM) MC5-R) and 209 nM in assay [8] (read-out: Ki (nM) MC3-R).
`N=C(N)NCCCC1C(=O)N2C(COc3ccc4ccccc4c3)CCC2N1C(=O)C(Cc1ccccc1)NC(=O)C(N)Cc1cnc[nH]1` (centres unmarked) [Example 97]: the Ki was 1 nM in [2] (read-out: Ki (nM) MC1-R), above 1000 nM in [5] (setting [14]), 226 nM in [6] (read-out: Ki (nM) MC4-R) and above 1000 nM in [8] (setting [13]).
The term Inhibition denotes the share of the control response that was lost under treatment. A lower Inhibition goes with little suppression. Take `N=C(N)NCCC[C@H]1C(=O)N2C(CC[C@@H]2COc2ccc3ccccc3c2)N1C(=O)[C@@H](Cc1ccccc1Cl)NC(=O)[C@@H]1C[C@@H](OCc2ccccc2)CN1` (some centres unmarked) [Example 100]: the “Inhibition at 1 μM MC4-R” value in assay [1] worked out at 95%. For the same compound, the Ki is 244 nM in [2] (read-out: Ki (nM) MC1-R), 284 nM in [5] (read-out: Ki (nM) MC5-R), 42 nM in [6] (read-out: Ki (nM) MC4-R) and 854 nM in assay [8] (read-out: Ki (nM) MC3-R). In assay [3], the “Inhibition at 1 μM MC3-R” value is 40%. In assay [9], the “agonist/antagonist status as to MC1-R” value is listed as “agonist”. Besides, in [4], the “Inhibition at 1 μM MC1-R” value came to 54%. For the same compound, in assay [10], the “agonist/antagonist status as to MC4-R” value is “agonist”. In assay [7], the “Inhibition at 1 μM MC5-R” value was 93%.
For `N=C(N)NCCC[C@H]1C(=O)N2C(CC[C@@H]2COc2ccc3ccccc3c2)N1C(=O)[C@@H](Cc1ccc(Cl)cc1Cl)NC(=O)[C@@H]1Cc2ccccc2CN1` (some centres unmarked) [Example 112], the “Inhibition at 1 μM MC4-R” value in [1] came to 100%. For the same compound, the Ki in assay [2] (read-out: Ki (nM) MC1-R) came to 111 nM; in [5] (read-out: Ki (nM) MC5-R) it was 26 nM; in assay [6] (read-out: Ki (nM) MC4-R), 1 nM; in assay [8] (read-out: Ki (nM) MC3-R), 42 nM. Besides, the “agonist/antagonist status as to MC5-R” value in assay [11] is given as “antagonist”. Further, the “Inhibition at 1 μM MC3-R” value in assay [3] came to 88%. Further, the “agonist/antagonist status as to MC1-R” value in assay [9] is “inactive”. In addition, the “Inhibition at 1 μM MC1-R” value in [4] worked out at 75%. Besides, the “agonist/antagonist status as to MC4-R” value in [10] is on record as “antagonist”. Also, in assay [7], the “Inhibition at 1 μM MC5-R” value is given as 96%.
On to `N=C(N)NCCC[C@H]1C(=O)N2C(CC[C@@H]2COc2ccc3ccccc3c2)N1C(=O)[C@@H](Cc1ccc(Cl)cc1Cl)NC(=O)[C@@H]1CC[C@H](c2ccccc2)N1` (some centres unmarked) [Example 115], for which the inhibition at 1 µM was 97% in assay [1], 43% in assay [3] and 86% in assay [7]. Also, the Ki in assay [2] (setting [12]) is above 1000 nM; in [5] (read-out: Ki (nM) MC5-R), 99 nM; in assay [6] (read-out: Ki (nM) MC4-R), 12 nM; in [8] (setting [13]), above 1000 nM.
For the compound `CCCCC(N)C(=O)NC(C)C(=O)NC(Cc1cnc[nH]1)C(=O)NC(Cc1ccccc1)C(=O)N1CC(OCc2ccccc2)CC1C(=O)NCCCN` (centres unmarked) [Example 134] (H-[Nle]AHF[Hyp](Bn)-{NH(CH2)3NH2}; configuration not given here), the Ki in [5] (setting [14]), in [6] (setting [15]) and in [8] (setting [13]) was above 1000 nM in each case.
For `NCCCNC(=O)C1CC(OCc2ccccc2)CN1C(=O)C(Cc1ccc(Cl)cc1)NC(=O)C1Cc2ccccc2CN1` (centres unmarked) [Example 145], the Ki in assay [2] (setting [12]), in assay [6] (setting [15]) and in [8] (setting [13]) was above 1000 nM throughout.
As to `NCCCNC(=O)[C@@H]1C[C@@H](OCc2ccccc2)CN1C(=O)[C@@H](Cc1ccc(Cl)cc1)NC(=O)[C@H]1Cc2ccccc2CN1` [Example 146], the Ki in assay [2] (setting [12]), in assay [5] (setting [14]), in [6] (setting [15]) and in assay [8] (setting [13]) was above 1000 nM each time.
Turning to `NCCCNC(=O)C1CC(OCc2ccccc2)CN1C(=O)C(Cc1ccccc1)NC(=O)C1Cc2ccccc2CN1` (centres unmarked) [Example 147], the Ki in [2] (setting [12]), in assay [5] (setting [14]), in [6] (setting [15]) and in assay [8] (setting [13]) was above 1000 nM each time.
Take `NCCCNC(=O)[C@@H]1C[C@@H](OCc2ccccc2)CN1C(=O)[C@@H](Cc1ccccc1)NC(=O)[C@H]1Cc2ccccc2CN1` [Example 148]: the Ki in [2] (setting [12]), in assay [5] (setting [14]), in assay [6] (setting [15]) and in assay [8] (setting [13]) was above 1000 nM each time.
Consider `[2H]N[C@@H](Cc1cnc[nH]1)C(=O)N[C@@H](Cc1ccccc1)C(=O)N1C2CC[C@H](COc3ccc4ccccc4c3)N2C(=O)[C@@H]1CCCCN` (some centres unmarked) [Example 180], for which the Ki in assay [2] (read-out: Ki (nM) MC1-R) was 8 nM; in assay [5] (setting [14]) it was above 1000 nM; in [6] (setting [15]) it was above 1000 nM; in assay [8] (setting [13]), above 1000 nM. Further, the “agonist/antagonist status as to MC1-R” value in assay [9] is recorded as “agonist”; in assay [9] (listed as Compound 2), “potent MCR-1 agonist”.

These data come from patent publication US7807678B2, “Peptidomimetics of biologically active metallopeptides” (Palatin Technologies, Inc., priority 2001, dated 2010).
